The text below walks through data of patent publication US20240246942A1, “KINASE INHIBITORS FOR THE TREATMENT OF NEURODEGENERATIVE DISEASES” (priority 2020, published 2024).

Common to all, as to assay: biochemical
The target of test [1] is T1, panel of 374 wild-type kinases (Homo sapiens, UniProt Q13464).
T1 construct: purchased Reaction Biology Corporation
To be noted: read-out: % Enzyme Activity (relative to DMSO controls), kinase ROCK1.

In test [2] the target is T2, panel of 374 wild-type kinases (Homo sapiens, UniProt Q8NG66).
T2 construct: purchased Reaction Biology Corporation
T2 sequence (Q8NG66 1-645): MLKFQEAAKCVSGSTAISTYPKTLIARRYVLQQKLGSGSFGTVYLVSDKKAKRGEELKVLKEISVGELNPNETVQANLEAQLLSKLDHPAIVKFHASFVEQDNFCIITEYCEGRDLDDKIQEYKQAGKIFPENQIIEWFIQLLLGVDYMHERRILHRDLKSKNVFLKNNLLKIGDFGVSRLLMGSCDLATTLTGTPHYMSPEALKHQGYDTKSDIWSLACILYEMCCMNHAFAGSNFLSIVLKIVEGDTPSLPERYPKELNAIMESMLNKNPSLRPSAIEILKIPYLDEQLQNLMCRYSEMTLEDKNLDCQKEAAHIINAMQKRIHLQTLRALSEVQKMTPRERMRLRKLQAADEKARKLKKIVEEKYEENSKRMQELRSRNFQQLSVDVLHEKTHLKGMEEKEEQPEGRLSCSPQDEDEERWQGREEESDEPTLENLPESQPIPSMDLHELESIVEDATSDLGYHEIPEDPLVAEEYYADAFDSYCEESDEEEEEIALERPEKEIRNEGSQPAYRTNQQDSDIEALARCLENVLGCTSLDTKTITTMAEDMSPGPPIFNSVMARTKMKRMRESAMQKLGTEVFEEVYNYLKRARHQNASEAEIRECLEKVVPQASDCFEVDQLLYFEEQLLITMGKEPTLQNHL
To be noted: read-out: % Enzyme Activity (relative to DMSO controls), NEK11.

The target of test [3] is T3, panel of 374 wild-type kinases (Homo sapiens, UniProt P19784).
T3 construct: purchased Reaction Biology Corporation
T3 sequence (P19784 whole entry): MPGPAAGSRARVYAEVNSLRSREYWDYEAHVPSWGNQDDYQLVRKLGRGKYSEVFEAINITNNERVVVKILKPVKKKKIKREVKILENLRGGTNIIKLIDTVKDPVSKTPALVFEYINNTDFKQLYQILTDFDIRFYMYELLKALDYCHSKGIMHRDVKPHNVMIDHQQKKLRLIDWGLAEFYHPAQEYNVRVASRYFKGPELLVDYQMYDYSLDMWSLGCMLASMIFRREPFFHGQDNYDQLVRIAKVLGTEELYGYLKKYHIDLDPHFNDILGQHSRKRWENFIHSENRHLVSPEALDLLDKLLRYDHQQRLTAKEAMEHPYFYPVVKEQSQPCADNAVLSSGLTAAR
Conditions: CK2a2, read-out: % Enzyme Activity (relative to DMSO controls).

Test [4] deals with T4, panel of 374 wild-type kinases (Homo sapiens, UniProt Q13233).
T4 construct: purchased Reaction Biology Corporation
T4 sequence (Q13233 whole entry): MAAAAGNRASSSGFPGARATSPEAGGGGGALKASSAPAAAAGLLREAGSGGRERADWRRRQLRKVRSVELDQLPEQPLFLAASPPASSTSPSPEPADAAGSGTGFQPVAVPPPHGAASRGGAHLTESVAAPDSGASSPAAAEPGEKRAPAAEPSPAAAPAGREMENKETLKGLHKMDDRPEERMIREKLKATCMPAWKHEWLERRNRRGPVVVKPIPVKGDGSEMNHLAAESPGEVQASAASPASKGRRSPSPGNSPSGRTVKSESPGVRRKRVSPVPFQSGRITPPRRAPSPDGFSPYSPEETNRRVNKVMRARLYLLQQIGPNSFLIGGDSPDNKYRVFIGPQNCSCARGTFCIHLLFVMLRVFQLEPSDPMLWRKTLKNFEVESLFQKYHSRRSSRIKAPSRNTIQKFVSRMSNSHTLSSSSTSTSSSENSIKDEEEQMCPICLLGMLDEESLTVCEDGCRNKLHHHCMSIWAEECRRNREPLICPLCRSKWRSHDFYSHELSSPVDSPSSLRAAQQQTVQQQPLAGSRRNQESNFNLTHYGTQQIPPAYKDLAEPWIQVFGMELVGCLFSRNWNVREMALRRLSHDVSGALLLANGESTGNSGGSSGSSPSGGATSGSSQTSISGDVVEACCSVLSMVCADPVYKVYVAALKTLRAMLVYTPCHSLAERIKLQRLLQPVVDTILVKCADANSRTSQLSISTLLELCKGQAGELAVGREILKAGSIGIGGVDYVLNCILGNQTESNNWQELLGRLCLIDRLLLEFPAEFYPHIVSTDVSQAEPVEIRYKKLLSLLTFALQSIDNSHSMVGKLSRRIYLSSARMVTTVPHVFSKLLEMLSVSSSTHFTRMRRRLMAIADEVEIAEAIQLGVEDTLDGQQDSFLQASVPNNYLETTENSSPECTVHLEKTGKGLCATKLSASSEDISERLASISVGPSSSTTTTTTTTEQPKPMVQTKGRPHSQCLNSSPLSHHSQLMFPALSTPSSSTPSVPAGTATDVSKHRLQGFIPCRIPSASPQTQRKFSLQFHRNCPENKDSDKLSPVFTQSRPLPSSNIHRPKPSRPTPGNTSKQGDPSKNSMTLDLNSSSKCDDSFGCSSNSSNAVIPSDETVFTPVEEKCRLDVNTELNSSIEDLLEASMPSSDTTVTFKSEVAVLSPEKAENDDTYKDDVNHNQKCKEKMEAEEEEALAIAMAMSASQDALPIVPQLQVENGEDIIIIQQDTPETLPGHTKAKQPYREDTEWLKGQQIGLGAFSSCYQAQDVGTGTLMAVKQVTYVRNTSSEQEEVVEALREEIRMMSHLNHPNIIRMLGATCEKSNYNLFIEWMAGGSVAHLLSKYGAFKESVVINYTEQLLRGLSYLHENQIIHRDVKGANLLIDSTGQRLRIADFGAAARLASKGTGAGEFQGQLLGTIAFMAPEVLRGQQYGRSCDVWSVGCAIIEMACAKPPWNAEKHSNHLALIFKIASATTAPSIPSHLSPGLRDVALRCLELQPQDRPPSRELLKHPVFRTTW
To be noted: read-out: % Enzyme Activity (relative to DMSO controls), MEKK1.

The target of test [5] is T5, panel of 374 wild-type kinases (Homo sapiens, UniProt Q9UBE8).
T5 construct: purchased Reaction Biology Corporation
T5 sequence (Q9UBE8 1-527): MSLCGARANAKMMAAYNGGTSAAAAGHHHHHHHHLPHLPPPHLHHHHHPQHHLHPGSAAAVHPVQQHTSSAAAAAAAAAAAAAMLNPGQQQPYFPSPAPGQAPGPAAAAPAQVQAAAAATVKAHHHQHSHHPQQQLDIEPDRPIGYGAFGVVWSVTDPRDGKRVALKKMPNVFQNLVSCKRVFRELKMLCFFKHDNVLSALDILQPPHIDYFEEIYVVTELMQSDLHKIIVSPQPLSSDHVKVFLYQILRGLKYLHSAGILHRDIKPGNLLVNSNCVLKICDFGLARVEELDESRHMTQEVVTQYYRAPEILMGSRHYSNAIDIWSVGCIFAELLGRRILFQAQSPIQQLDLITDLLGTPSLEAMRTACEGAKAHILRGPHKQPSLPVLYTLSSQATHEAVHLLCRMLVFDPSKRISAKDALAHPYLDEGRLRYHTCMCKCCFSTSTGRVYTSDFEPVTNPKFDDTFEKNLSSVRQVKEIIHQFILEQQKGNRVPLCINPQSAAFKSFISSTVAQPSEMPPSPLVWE
To be noted: read-out: % Enzyme Activity (relative to DMSO controls), NLK.

Test [6] has as its target T6, panel of 374 wild-type kinases (Homo sapiens, UniProt Q05513).
T6 construct: purchased Reaction Biology Corporation
T6 sequence (Q05513 1-592): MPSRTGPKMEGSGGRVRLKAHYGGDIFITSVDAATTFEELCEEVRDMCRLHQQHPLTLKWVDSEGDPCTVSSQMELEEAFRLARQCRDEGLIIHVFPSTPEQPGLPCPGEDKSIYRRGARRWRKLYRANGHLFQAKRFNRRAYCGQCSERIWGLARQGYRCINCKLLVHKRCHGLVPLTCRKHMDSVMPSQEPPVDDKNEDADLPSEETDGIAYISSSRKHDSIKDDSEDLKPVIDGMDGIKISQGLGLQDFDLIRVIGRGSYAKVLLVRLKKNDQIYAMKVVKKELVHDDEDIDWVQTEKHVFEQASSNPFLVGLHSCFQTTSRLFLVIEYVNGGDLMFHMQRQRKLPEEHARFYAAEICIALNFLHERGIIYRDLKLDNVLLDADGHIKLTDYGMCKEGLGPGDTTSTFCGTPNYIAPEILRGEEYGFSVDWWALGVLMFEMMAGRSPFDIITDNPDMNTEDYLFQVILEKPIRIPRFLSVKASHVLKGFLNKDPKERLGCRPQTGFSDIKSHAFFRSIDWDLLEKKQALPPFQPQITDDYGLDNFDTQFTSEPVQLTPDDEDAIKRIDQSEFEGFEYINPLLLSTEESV
Conditions: read-out: % Enzyme Activity (relative to DMSO controls), kinase PKCzeta.

The target in test [7] is T7, panel of 374 wild-type kinases (Homo sapiens, UniProt P22455).
T7 construct: purchased Reaction Biology Corporation
T7 sequence (P22455 22-802): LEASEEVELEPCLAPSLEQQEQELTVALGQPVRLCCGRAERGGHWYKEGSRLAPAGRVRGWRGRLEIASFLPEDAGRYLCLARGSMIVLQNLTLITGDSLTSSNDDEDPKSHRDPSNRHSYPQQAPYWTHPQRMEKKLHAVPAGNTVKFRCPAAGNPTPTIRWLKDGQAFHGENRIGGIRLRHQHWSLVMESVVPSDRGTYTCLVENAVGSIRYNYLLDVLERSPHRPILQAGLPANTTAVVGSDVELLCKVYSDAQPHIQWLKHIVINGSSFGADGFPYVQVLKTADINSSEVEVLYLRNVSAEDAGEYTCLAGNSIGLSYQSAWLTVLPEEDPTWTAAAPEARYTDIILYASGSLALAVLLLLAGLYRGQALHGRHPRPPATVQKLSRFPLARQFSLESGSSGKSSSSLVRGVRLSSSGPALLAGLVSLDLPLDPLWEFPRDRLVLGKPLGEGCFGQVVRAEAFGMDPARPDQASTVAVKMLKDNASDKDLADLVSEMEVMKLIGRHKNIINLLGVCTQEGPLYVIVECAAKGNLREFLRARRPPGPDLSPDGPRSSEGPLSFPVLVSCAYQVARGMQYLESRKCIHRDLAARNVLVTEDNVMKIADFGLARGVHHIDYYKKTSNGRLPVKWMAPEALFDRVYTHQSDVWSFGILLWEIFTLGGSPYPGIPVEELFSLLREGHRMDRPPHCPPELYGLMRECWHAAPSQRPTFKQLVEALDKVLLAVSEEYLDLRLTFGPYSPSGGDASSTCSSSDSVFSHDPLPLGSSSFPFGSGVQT
To be noted: for remaining activity at 5 µM: read-out: % Enzyme Activity (relative to DMSO controls), FGFR4.

T1 sequence (Q13464 whole entry): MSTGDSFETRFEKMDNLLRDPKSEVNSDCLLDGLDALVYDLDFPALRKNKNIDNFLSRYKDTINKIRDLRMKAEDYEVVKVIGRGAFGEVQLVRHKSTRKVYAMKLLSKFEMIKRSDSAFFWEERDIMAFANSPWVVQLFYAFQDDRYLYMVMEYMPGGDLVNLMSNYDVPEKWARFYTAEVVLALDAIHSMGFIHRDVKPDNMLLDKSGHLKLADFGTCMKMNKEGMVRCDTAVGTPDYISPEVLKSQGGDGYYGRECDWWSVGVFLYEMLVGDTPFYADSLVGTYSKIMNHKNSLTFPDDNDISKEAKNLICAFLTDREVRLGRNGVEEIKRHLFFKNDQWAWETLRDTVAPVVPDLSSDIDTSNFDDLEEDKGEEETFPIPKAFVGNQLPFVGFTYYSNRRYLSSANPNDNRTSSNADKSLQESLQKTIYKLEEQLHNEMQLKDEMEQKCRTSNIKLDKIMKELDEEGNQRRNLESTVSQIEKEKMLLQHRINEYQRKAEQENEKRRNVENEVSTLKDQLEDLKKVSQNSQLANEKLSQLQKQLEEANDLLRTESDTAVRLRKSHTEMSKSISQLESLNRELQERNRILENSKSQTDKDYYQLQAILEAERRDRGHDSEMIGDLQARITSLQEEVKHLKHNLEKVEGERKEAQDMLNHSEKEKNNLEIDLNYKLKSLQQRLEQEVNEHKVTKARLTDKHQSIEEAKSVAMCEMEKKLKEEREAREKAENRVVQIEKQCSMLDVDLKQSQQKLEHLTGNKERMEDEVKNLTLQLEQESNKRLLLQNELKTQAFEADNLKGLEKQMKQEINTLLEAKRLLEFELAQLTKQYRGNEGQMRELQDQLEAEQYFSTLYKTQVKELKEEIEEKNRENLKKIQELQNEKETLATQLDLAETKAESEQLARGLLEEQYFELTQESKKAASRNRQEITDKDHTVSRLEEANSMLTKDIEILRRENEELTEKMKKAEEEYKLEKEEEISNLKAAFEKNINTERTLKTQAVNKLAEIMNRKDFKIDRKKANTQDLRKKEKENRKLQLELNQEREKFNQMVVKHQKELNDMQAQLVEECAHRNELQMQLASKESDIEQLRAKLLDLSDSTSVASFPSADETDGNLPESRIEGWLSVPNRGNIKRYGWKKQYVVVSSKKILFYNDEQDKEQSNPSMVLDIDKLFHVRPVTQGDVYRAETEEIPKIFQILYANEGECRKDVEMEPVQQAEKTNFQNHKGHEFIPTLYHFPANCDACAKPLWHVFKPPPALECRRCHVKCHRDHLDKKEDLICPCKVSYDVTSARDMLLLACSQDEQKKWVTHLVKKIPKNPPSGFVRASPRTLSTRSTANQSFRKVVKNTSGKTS

Consider `O=C(Nc1cnn(-c2csc(C(=O)NC3COC3)c2)c1)Nc1ccccc1Cl` [Compound 17, 4-(4-(3-(2-chlorophenyl)ureido)-1H-pyrazol-1-yl)-N-(oxetan-3-yl)thiophene-2-carboxamide], for which the remaining activity at 5 µM in test [1] worked out at 109%; in test [2], 145%; in test [3], 97.3%; in test [4], 103%; in test [5] it was 99.5%; in test [6] it was 105%. Also, the remaining activity at 5 µM in test [7] was 88.2%.

As to `O=C(Nc1cnn(-c2csc(C(=O)NC3COC3)c2)c1)Nc1c(F)cccc1Cl` [Compound 25, 4-(4-(3-(2-chloro-6-fluorophenyl)ureido)-1H-pyrazol-1-yl)-N-(oxetan-3-yl)thiophene-2-carboxamide], the remaining activity at 5 µM in test [1] came to 78.2%; in test [2] it was 89.5%; in test [3], 96.6%; in test [4], 98.7%; in test [5], 87.4%; in test [6], 93.6%. In test [7], the remaining activity at 5 µM came to 99.6%.

On to `Cc1sc(C(=O)NC2COC2)cc1-n1cc(NC(=O)Nc2c(F)cccc2Cl)cn1` [Compound 27, 4-(4-(3-(2-chloro-6-fluorophenyl)ureido)-1H-pyrazol-1-yl)-5-methyl-N-(oxetan-3-yl)thiophene-2-carboxamide], for which the remaining activity at 10 µM in test [1] (10 uM) stood at 96.8%; in test [2] (10 uM), 70%; in test [3] (10 uM), 95.5%; in test [4] (10 uM) it was 94.5%; in test [5] (10 uM) it was 85.2%; in test [6] (10 uM), 104%. Also, the remaining activity at 10 µM in test [7] (FGFR4, 10 uM, read-out: % Enzyme Activity (relative to DMSO controls)) came out at 96.8%.
